Laboratory results taken from patent publication US4952585A, “Castanospermine esters in the inhibition of tumor metastasis” (Merrell Dow Pharmaceuticals Inc., priority 1988, dated 1990).

How the values were obtained:
B16 F10 melanoma cells = test: inhibition of pulmonary metastases in C57 mice after pretreatment of B16 F10 melanoma cells with test compound in culture; format: in vivo, C57 male mice; settings: Mus musculus, B16-F10, 360 h, pulmonary foci counted fifteen days after i.v. inoculation, read-out: per cent inhibition of metastases; for inhibition in vivo at 10 µg/mL: cells pretreated 48 hours with 10 μg/ml; for inhibition in vivo at 1 µg/mL: cells pretreated 48 hours with 1 μg/ml
Protocol: The lungs provide a convenient organ for the study of metastasis in the animal body.
A single suspension of B16 F10 melanoma cells was prepared from a 14 day old maintenance tumor excised from a C57 male mouse. The tumor was minced and trypsinized followed by dissociation of the cells in minimal essential medium (MEM) with fetal calf serum (FCS) by repeated pipetting. The preparation was passed through a sterile gauze pad, centrifuged, and the cell pellet washed in minimal essential medium without fetal calf serum. A trypan blue wet mount was made to determine the percent of viable cells.
The cells were then plated in 100 mm petri dishes at 0.5×10^6 viable cells/10 ml minimal essential medium with fetal calf serum and incubated at 37° C. for 24 to 48 hours. After incubation, the medium was aspirated and 10 ml of the test compounds at the concentrations of 1 μg or 10 μg/ml MEM with FCS was added. After 24 hours incubation, the medium was aspirated and 10 ml of fresh test compound-medium preparation was added.
Test compounds were dissolved in water or dimethyl sulfoxide and then diluted to the testing concentrations with medium. Control plates receive only medium and/or medium containing dimethyl sulfoxide.
After a total of 48 hours incubation, the testing medium was aspirated, the cells trypsinized and suspended in MEM with FCS. The cells were washed in MEM without FCS and resuspended at the concentration of 10×10^5 cells/ml of MEM without FCS.
C57 male mice weighing 20-25 grams (Charles River) were inoculated intravenously via the tail vein with 2×10^5 cells per 0.2 ml MEM without FCS/mouse. Fifteen days after inoculation, the animals were sacrificed by carbon dioxide inhalation and the lungs were removed and placed in formalin solution. The number of pulmonary foci per animal lung was counted (after separating the lobes) under a lighted dissecting lens.
Data can be expressed as the mean number of foci±S.E. per control and treatment groups. Treatment group data is also expressed as a percent of control and percent of inhibition (100% minus % of control). When the procedure described above was carried out on the castanospermine esters listed below, the per cent inhibition of metastases observed [at the dose, in micrograms per milliliter (μg/ml), given in parentheses] was as follows: […]

experimental metastasis = settings: mice; Cancer Research, 46, 5215 (1986); cited from earlier work
[1] = system: B16 melanoma F10 line cells; test: inhibition of metastatic foci in the lungs of C57/BL mice injected i.v. with B16 melanoma F10 line cells, test compound given i.p.; format: in vivo; settings: 100 mg/kg, i.p. daily from day 1-15; metastatic foci in the lungs vs. controls
Protocol: In another experiment, 1×10^5 viable B16 melanoma F10 line cells were injected i.v. through the tail vein of C57/BL mice. Test compound was then administered at 100 mg/kg, i.p. daily from day 1-15. At the end of 15 days, the animals were sacrificed and the number of metastatic foci in the lungs were quantitated and compared to controls run simultaneously.

Compound CCCC(=O)O[C@H]1CN2CC[C@H](O)[C@@H]2[C@@H](O)[C@@H]1O [[1S-(1α,6β,7α,8β,8aβ)]-octahydro-1,6,7,8-indolizinetetrol 6-butanoate] has an inhibition in vivo at 10 µg/mL (B16 F10 melanoma cells) of 13%.
With CC(=O)O[C@H]1CN2CC[C@H](O)[C@@H]2[C@@H](O)[C@@H]1O [[1S-(1α,6β,7α,8β,8aβ)]-octahydro-1,6,7,8-indolizinetetrol 6-acetate] the inhibition in vivo at 1 µg/mL (B16 F10 melanoma cells) was > 50%.
Cc1ccccc1C(=O)O[C@H]1CN2CC[C@H](O)[C@@H]2[C@@H](O)[C@@H]1O [[1S-(1α,6β,7α,8β,8aβ)]-Octahydro-1,6,7,8-indolizinetetrol 6-(2-methylbenzoate)] showed an inhibition in vivo at 10 µg/mL (B16 F10 melanoma cells) of 71%.
In the case of O[C@H]1[C@H](O)[C@@H](O)CN2CC[C@H](O)[C@H]12 [castanospermine, (1S,6S,7R,8R,8aR)-1,6,7,8-tetrahydroxyindolizidine], the “inhibition of experimental metastasis” value (experimental metastasis) is given as “inhibition of experimental metastasis”.
COc1ccc(C(=O)O[C@H]2CN3CC[C@H](O)[C@@H]3[C@@H](O)[C@@H]2O)cc1 [[1S-(1α,6β,7α,8β,8aβ)]-octahydro-1,6,7,8-indolizinetetrol 6-(4-methoxybenzoate)] gave an inhibition in vivo at 1 µg/mL (B16 F10 melanoma cells) of 19%.
Work on O=C(O[C@H]1[C@H](O)[C@H]2[C@@H](O)CCN2C[C@@H]1O)c1ccccc1 [[1S-(1α,6β,7α,8β,8aβ)]-octahydro-1,6,7,8-indolizinetetrol 7-benzoate] yielded an inhibition in vivo at 1 µg/mL (B16 F10 melanoma cells) of 23%.
Compound CCC(=O)O[C@H]1[C@H](O)[C@H]2[C@@H](O)CCN2C[C@@H]1O [[1S-(1α,6β,7α,8β,8aβ)]-octahydro-1,6,7,8-indolizinetetrol 7-propionate] has an inhibition in vivo at 1 µg/mL (B16 F10 melanoma cells) of 36%.
With Cc1ccc(C(=O)O[C@H]2CN3CC[C@H](O)[C@@H]3[C@@H](O)[C@@H]2O)cc1 [[1S-(1α,6β,7α,8β,8aβ)]-octahydro-1,6,7,8-indolizinetetrol 6-(4-methylbenzoate)] the “% INHIBITION of metastasis” value [1] was 71% and the inhibition in vivo at 10 µg/mL (B16 F10 melanoma cells) was 75%.
In the case of O=C(O[C@H]1CN2CC[C@H](O)[C@@H]2[C@@H](O)[C@@H]1O)c1ccccc1 [[1S-(1α,6β,7α,8β,8aβ)]-octahydro-1,6,7,8-indolizinetetrol 6-benzoate], the “% INHIBITION of metastasis” value [1] is reported as 66% and the inhibition in vivo at 1 µg/mL (B16 F10 melanoma cells) is reported as 35%.
Compound Cc1cccc(C(=O)O[C@H]2CN3CC[C@H](O)[C@@H]3[C@@H](O)[C@@H]2O)c1 [[1S-(1α,6β,7α,8β,8aβ)]-Octahydro-1,6,7,8-indolizinetetrol 6-(3-methylbenzoate)] has an inhibition in vivo at 1 µg/mL (B16 F10 melanoma cells) of 78%.
For Cc1ccc(C(=O)O[C@H]2[C@H](O)[C@H]3[C@@H](O)CCN3C[C@@H]2O)cc1 [[1S-(1α,6β,7α,8β,8aβ)]-octahydro-1,6,7,8-indolizinetetrol 7-(4-methylbenzoate)], the inhibition in vivo at 1 µg/mL (B16 F10 melanoma cells) was 65%.
In the case of O=C(O[C@H]1CN2CC[C@H](O)[C@@H]2[C@@H](O)[C@@H]1O)c1ccco1 [[1S-(1α,6β,7α,8β,8aβ)]-Octahydro-1,6,7,8-indolizinetetrol 6-(2-furancarboxylate)], the “% INHIBITION of metastasis” value [1] is reported as 40% and the inhibition in vivo at 1 µg/mL (B16 F10 melanoma cells) is reported as 51%.
